Measurements reported in paper PMC11200585, “Prospects for Prostate Cancer Chemotherapy: Cytotoxic Evaluation and Mechanistic Insights of Quinolinequinones with ADME/PK Profile” (Biomedicines, 2024).

Experiments:
Format in all cases: cell-based, human
[1] = test system: PC-3; experiment: NCI-60 five-dose assay (prostate cancer); details: 48 h, SRB; for GI50 / CC50: Homo sapiens; for CC50: read-out: LC50 (the source's name)
[2] = test system: NCI-H226; experiment: NCI-60 five-dose assay (non-small cell lung cancer); details: 48 h, SRB; for GI50 / LC50: Homo sapiens
[3] = test system: HT29; experiment: NCI-60 one-dose screen (colon cancer); details: for GP (growth percentage): 10 µM single dose, 48 h
Procedure: (§1) The obtained quinolinequinones were submitted to NCI, Bethesda, USA, and, as per standard protocol of NCI, all compounds were evaluated for their antiproliferative activity at single-dose assay (10 µM concentration in DMSO) on a panel of 60 cancer cell lines derived from leukemia, non-small-cell lung, colon, CNS, melanoma, ovarian, renal, prostate, and breast, as per protocol. Tested compounds were added to the microtiter culture plates followed by incubation for 48 h at 37 °C. Sulforhodamine B (SRB), a protein-binding dye, is used for endpoint determination. The percent of the growth of the treated cells was determined in comparison to the untreated control cells and the results of each tested compound were reported. Data from one-dose experiments pertain to the percentage growth at 10 μM [16, 17, 18].

[4] = test system: HCT-15; experiment: NCI-60 one-dose screen (colon cancer); details: 10 µM single dose, 48 h
Procedure: as §1

[5] = test system: HCC-2998; experiment: NCI-60 one-dose screen (colon cancer); details: 10 µM single dose; for GP (growth percentage): 48 h
Procedure: as §1

[6] = test system: HCT-116; experiment: NCI-60 one-dose screen (colon cancer); details: 10 µM single dose, 48 h
Procedure: as §1

[7] = test system: HS 578T; experiment: NCI-60 five-dose assay (breast cancer); details: 48 h, SRB; for GI50 / CC50: Homo sapiens; for CC50: read-out: LC50 (the source's name)
[8] = test system: PC-3; experiment: NCI-60 one-dose screen (prostate cancer); details: 10 µM single dose; for GP (growth percentage): 48 h; for inhibition at 10 µM: Homo sapiens
Procedure: as §1

[9] = test system: DU-145; experiment: NCI-60 one-dose screen (prostate cancer); details: 10 µM single dose, 48 h
Procedure: as §1

[10] = test system: HS 578T; experiment: NCI-60 one-dose screen (breast cancer); details: 10 µM single dose, 48 h
Procedure: as §1

[11] = test system: T-47D; experiment: NCI-60 one-dose screen (breast cancer); details: 10 µM single dose, 48 h
Procedure: as §1

[12] = test system: BT-549; experiment: NCI-60 one-dose screen (breast cancer); details: 10 µM single dose, 48 h
Procedure: as §1

[13] = test system: MDA-MB-468; experiment: NCI-60 one-dose screen (breast cancer); details: 10 µM single dose, 48 h
Procedure: as §1

[14] = test system: MDA-MB-231/ATCC; experiment: NCI-60 one-dose screen (breast cancer); details: 10 µM single dose, 48 h
Procedure: as §1

[15] = test system: MCF7; experiment: NCI-60 one-dose screen (breast cancer); details: 10 µM single dose, 48 h
Procedure: as §1

[16] = test system: T-47D; experiment: NCI-60 five-dose assay (breast cancer); details: 48 h, SRB; for GI50 / CC50: Homo sapiens, T47D; for CC50: read-out: LC50 (the source's name)
[17] = test system: MCF7; experiment: NCI-60 five-dose assay (breast cancer); details: 48 h, SRB; for GI50 / LC50: Homo sapiens
[18] = test system: SN12C; experiment: NCI-60 five-dose assay (renal cancer); details: 48 h, SRB; for GI50 / LC50 (concentration killing 50% of starting cells): Homo sapiens
[19] = test system: MDA-MB-231/ATCC; experiment: NCI-60 five-dose assay (breast cancer); details: 48 h, SRB; for GI50 / LC50 (concentration killing 50% of cells): Homo sapiens
[20] = test system: ACHN; experiment: NCI-60 five-dose assay (renal cancer); details: 48 h, SRB; for GI50 / LC50: Homo sapiens
[21] = test system: OVCAR-5; experiment: NCI-60 five-dose assay (ovarian cancer); details: 48 h, SRB; for GI50 / LC50 (lethal concentration 50%): Homo sapiens
[22] = test system: SF-268; experiment: NCI-60 five-dose assay (CNS cancer); details: 48 h, SRB; for GI50 / LC50 (concentration killing 50% of cells): Homo sapiens
[23] = test system: UACC-62; experiment: NCI-60 five-dose assay (melanoma); details: 48 h, SRB; for GI50 / LC50 (concentration killing 50% of cells): Homo sapiens
[24] = test system: BT-549; experiment: NCI-60 five-dose assay (breast cancer); details: 48 h, SRB; for GI50 / LC50 (concentration giving 50% net cell kill): Homo sapiens
[25] = test system: NCI-H322M; experiment: NCI-60 one-dose screen (non-small cell lung cancer); details: 10 µM single dose, 48 h
Procedure: as §1

[26] = test system: NCI-H226; experiment: as above; details: 10 µM single dose; for GP (growth percentage): 48 h
Procedure: as §1

[27] = test system: NCI-H460; experiment: as above; details: 10 µM single dose; for GP (growth percentage): 48 h
Procedure: as §1

[28] = test system: A549/ATCC; experiment: as above; details: 10 µM single dose, 48 h
Procedure: as §1

[29] = test system: HOP-92; experiment: as above; details: 10 µM single dose, 48 h
Procedure: as §1

[30] = test system: NCI-H23; experiment: as above; details: 10 µM single dose, 48 h
Procedure: as §1

[31] = test system: EKVX; experiment: as above; details: 10 µM single dose; for GP (growth percentage): 48 h
Procedure: as §1

[32] = test system: HOP-62; experiment: as above; details: 10 µM single dose; for GP (growth percentage): 48 h
Procedure: as §1

[33] = test system: NCI-H522; experiment: as above; details: 10 µM single dose, 48 h
Procedure: as §1

[34] = test system: NCI/ADR-RES; experiment: NCI-60 five-dose assay (ovarian cancer); details: 48 h, SRB; for GI50 / CC50: Homo sapiens; for CC50: read-out: LC50 (the source's name)
[35] = test system: OVCAR-3; experiment: NCI-60 five-dose assay (ovarian cancer); details: 48 h, SRB
[36] = test system: LOX IMVI; experiment: NCI-60 five-dose assay (melanoma); details: 48 h, SRB; for GI50 / LC50 (concentration killing 50% of cells): Homo sapiens
[37] = test system: MOLT-4; experiment: NCI-60 five-dose assay (leukemia); details: 48 h, SRB; for GI50 / LC50: Homo sapiens
[38] = test system: CAKI-1; experiment: NCI-60 five-dose assay (renal cancer); details: 48 h, SRB; for GI50 / LC50 (lethal concentration, 50% net cell kill): Homo sapiens

COc1ccccc1NC1=C(Cl)C(=O)c2nc(C)ccc2C1=O [AQQ1]
TGI [1]: 2.58 µM | GI50 [1]: 1.21 µM | CC50 [1]: 5.49 µM | TGI [2]: 4.52 µM | GI50 [2]: 1.93 µM | LC50 [2]: 14.1 µM | GP (growth percentage) [3]: 75.04% | GP (growth percentage) [4]: −47.03% | GP (growth percentage) [5]: 58.90% | GP (growth percentage) [6]: −80.64% | TGI [7]: 5.64 µM | GI50 [7]: 2.27 µM | CC50 [7]: > 100 µM | GP (growth percentage) [8]: 27.39% | inhibition at 10 µM [8]: 72.6% | GP (growth percentage) [9]: −57.26% | GP (growth percentage) [10]: 72.15% | GP (growth percentage) [11]: −44.73% | GP (growth percentage) [12]: 83.54% | GP (growth percentage) [13]: −79.74% | GP (growth percentage) [14]: −57.30% | GP (growth percentage) [15]: −60.38% | GI50 [16]: 1.37 µM | CC50 [16]: > 100 µM | TGI [17]: 4.49 µM | GI50 [17]: 1.78 µM | LC50 [17]: > 100 µM | TGI [18]: 3.29 µM | GI50 [18]: 1.7 µM | LC50 (concentration killing 50% of starting cells) [18]: 6.36 µM | TGI [19]: 2.53 µM | GI50 [19]: 1.19 µM | LC50 (concentration killing 50% of cells) [19]: 5.37 µM | TGI [20]: 2.80 µM | GI50 [20]: 1.47 µM | LC50 [20]: 5.34 µM | TGI [21]: 3.42 µM | GI50 [21]: 1.86 µM | LC50 (lethal concentration 50%) [21]: 6.29 µM | TGI [22]: 3.05 µM | GI50 [22]: 1.53 µM | LC50 (concentration killing 50% of cells) [22]: 6.06 µM | TGI [23]: 3.37 µM | GI50 [23]: 1.82 µM | LC50 (concentration killing 50% of cells) [23]: 6.25 µM | TGI [24]: 3.27 µM | GI50 [24]: 1.72 µM | LC50 (concentration giving 50% net cell kill) [24]: 6.19 µM | GP (growth percentage) [25]: 71.14% | GP (growth percentage) [26]: 29.65% | inhibition at 10 µM ([26]; Homo sapiens): 70.3% | GP (growth percentage) [27]: 70.83% | GP (growth percentage) [28]: 101.36% | GP (growth percentage) [29]: −83.81% | GP (growth percentage) [30]: −8.37% | GP (growth percentage) [31]: 28.52% | inhibition at 10 µM ([31]; Homo sapiens): 71.5% | GP (growth percentage) [32]: 74.12% | GP (growth percentage) [33]: −48.50% | TGI [34]: 5.16 µM | GI50 [34]: 2.03 µM | CC50 [34]: 34.6 µM | TGI [35]: 2.40 µM | GI50 ([35]; Homo sapiens): 1.12 µM | CC50 ([35]; Homo sapiens, read-out: LC50 (the source's name)): 5.15 µM | TGI [36]: 2.36 µM | GI50 [36]: 0.952 µM | LC50 (concentration killing 50% of cells) [36]: 5.7 µM | TGI [37]: 8.60 µM | GI50 [37]: 2.27 µM | LC50 [37]: > 100 µM | TGI [38]: 2.87 µM | GI50 [38]: 1.5 µM | LC50 (lethal concentration, 50% net cell kill) [38]: 5.47 µM

COc1cc(NC2=C(Cl)C(=O)c3nc(C)ccc3C2=O)cc(OC)c1 [AQQ5]
TGI [1]: 10.4 µM | GI50 [1]: 2.56 µM | CC50 [1]: 43.6 µM | TGI [2]: 8.35 µM | GI50 [2]: 2.82 µM | LC50 [2]: 46.1 µM | GP (growth percentage) [3]: 24.91% | inhibition at 10 µM ([3]; Homo sapiens, HT-29, 10 µM single dose): 75.1% | GP (growth percentage) [4]: −66.21% | GP (growth percentage) [5]: 14.44% | inhibition at 10 µM ([5]; Homo sapiens): 85.6% | GP (growth percentage) [6]: −97.84% | TGI [7]: 5.78 µM | GI50 [7]: 2.43 µM | CC50 [7]: > 100 µM | GP (growth percentage) [8]: 27.99% | inhibition at 10 µM [8]: 72% | GP (growth percentage) [9]: −92.99% | GP (growth percentage) [10]: −32.78% | GP (growth percentage) [11]: −56.01% | GP (growth percentage) [12]: 24.11% | GP (growth percentage) [13]: −78.49% | GP (growth percentage) [14]: −28.56% | GP (growth percentage) [15]: −51.73% | TGI [16]: 3.62 µM | GI50 [16]: 1.5 µM | CC50 [16]: 8.74 µM | TGI [17]: 5.33 µM | GI50 [17]: 1.82 µM | LC50 [17]: > 100 µM | TGI [18]: 3.25 µM | GI50 [18]: 1.71 µM | LC50 (concentration killing 50% of starting cells) [18]: 6.19 µM | TGI [19]: 3.08 µM | GI50 [19]: 1.46 µM | LC50 (concentration killing 50% of cells) [19]: 6.48 µM | TGI [20]: 3.04 µM | GI50 [20]: 1.67 µM | LC50 [20]: 5.51 µM | TGI [21]: 5.79 µM | GI50 [21]: 2.38 µM | LC50 (lethal concentration 50%) [21]: 23.7 µM | TGI [22]: 14.4 µM | GI50 [22]: 3.25 µM | LC50 (concentration killing 50% of cells) [22]: 72.7 µM | TGI [23]: 3.42 µM | GI50 [23]: 1.77 µM | LC50 (concentration killing 50% of cells) [23]: 6.6 µM | TGI [24]: 3.40 µM | GI50 [24]: 1.97 µM | LC50 (concentration giving 50% net cell kill) [24]: 5.87 µM | GP (growth percentage) [25]: 89.75% | GP (growth percentage) [26]: 68.59% | GP (growth percentage) [27]: 2.02% | inhibition at 10 µM ([27]; Homo sapiens): 98% | GP (growth percentage) [28]: 42.41% | GP (growth percentage) [29]: −12.23% | GP (growth percentage) [30]: −55.61% | GP (growth percentage) [31]: 74.66% | GP (growth percentage) [32]: 0.85% | inhibition at 10 µM ([32]; Homo sapiens): 99.2% | GP (growth percentage) [33]: −80.61% | TGI [34]: 4.47 µM | GI50 [34]: 1.81 µM | CC50 [34]: 21.7 µM | TGI [36]: 2.32 µM | GI50 [36]: 1.1 µM | LC50 (concentration killing 50% of cells) [36]: 4.88 µM | TGI [37]: 7.00 µM | GI50 [37]: 1.5 µM | LC50 [37]: > 100 µM | TGI [38]: 3.15 µM | GI50 [38]: 1.76 µM | LC50 (lethal concentration, 50% net cell kill) [38]: 5.65 µM
